Measurements as given in ChEMBL document CHEMBL5058643, “Data for DCP probe BI-2081” (2022).

Key:
Details in all cases: Compound concentration 10.0 uM
[1] = target: 5-hydroxytryptamine receptor 1D (Homo sapiens) (UniProt P28221)
[2] = target: 5-hydroxytryptamine receptor 6 (Homo sapiens) (UniProt P50406)
[3] = target: 5-hydroxytryptamine receptor 1B (Homo sapiens) (UniProt P28222)
[4] = target: Histamine H3 receptor (Homo sapiens) (UniProt Q9Y5N1)
[5] = target: Kappa-type opioid receptor (Homo sapiens) (UniProt P41145)
Sequence of Kappa-type opioid receptor (Homo sapiens) (P41145 whole entry): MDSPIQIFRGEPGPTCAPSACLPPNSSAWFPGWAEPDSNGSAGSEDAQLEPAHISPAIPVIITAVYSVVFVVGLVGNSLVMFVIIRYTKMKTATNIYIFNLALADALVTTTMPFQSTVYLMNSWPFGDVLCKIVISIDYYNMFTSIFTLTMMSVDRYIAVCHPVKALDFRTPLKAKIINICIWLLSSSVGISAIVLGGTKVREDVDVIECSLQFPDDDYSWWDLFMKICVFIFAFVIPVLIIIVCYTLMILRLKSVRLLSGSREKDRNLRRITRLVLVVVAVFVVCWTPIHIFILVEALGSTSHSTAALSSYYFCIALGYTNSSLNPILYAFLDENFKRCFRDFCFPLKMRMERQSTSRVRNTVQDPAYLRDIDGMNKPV

[6] = target: T1, 5-hydroxytryptamine receptor 1A (Homo sapiens) (UniProt P08908)
T1 sequence (whole entry): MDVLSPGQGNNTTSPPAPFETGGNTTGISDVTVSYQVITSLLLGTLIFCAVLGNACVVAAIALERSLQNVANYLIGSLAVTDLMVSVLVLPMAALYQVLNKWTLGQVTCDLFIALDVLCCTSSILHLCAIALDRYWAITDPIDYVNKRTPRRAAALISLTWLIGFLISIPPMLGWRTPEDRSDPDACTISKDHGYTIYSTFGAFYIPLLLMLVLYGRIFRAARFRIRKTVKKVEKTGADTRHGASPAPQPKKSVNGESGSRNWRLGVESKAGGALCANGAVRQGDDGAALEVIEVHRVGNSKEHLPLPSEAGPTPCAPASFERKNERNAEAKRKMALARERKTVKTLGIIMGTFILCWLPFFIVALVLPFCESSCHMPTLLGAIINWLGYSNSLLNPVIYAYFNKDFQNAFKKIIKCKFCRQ

[7] = target: D(3) dopamine receptor (Homo sapiens) (UniProt P35462)
Sequence of D(3) dopamine receptor (Homo sapiens) (P35462 whole entry): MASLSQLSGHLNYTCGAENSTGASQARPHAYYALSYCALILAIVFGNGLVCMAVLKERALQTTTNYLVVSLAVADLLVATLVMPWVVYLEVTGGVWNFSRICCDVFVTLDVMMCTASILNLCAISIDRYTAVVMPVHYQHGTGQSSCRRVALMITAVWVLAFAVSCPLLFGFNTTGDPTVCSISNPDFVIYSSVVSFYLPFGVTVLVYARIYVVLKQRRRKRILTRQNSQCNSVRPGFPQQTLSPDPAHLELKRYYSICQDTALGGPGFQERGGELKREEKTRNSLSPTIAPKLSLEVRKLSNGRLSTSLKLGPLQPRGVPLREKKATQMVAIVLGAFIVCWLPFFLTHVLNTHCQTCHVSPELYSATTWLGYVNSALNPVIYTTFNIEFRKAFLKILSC

[8] = target: T2, Alpha-1B adrenergic receptor (Homo sapiens) (UniProt P35368)
T2 sequence (whole entry): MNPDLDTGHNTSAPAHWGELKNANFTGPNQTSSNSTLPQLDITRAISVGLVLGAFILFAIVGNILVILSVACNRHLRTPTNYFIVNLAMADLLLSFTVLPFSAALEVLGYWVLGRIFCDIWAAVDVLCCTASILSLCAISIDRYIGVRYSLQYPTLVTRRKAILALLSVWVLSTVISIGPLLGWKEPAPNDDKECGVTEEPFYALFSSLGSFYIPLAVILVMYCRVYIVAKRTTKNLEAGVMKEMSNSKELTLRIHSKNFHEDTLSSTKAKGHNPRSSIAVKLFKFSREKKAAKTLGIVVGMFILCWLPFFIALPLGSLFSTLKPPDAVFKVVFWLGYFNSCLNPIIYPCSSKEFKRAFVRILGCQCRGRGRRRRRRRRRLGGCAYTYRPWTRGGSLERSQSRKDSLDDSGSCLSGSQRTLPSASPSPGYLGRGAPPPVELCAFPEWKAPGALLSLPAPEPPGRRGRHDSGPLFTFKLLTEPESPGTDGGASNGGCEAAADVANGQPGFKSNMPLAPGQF

[9] = target: Histamine H2 receptor (Homo sapiens) (UniProt P25021)
[10] = target: Sodium-dependent dopamine transporter (Homo sapiens) (UniProt Q01959)
Sequence of Sodium-dependent dopamine transporter (Homo sapiens) (Q01959 whole entry): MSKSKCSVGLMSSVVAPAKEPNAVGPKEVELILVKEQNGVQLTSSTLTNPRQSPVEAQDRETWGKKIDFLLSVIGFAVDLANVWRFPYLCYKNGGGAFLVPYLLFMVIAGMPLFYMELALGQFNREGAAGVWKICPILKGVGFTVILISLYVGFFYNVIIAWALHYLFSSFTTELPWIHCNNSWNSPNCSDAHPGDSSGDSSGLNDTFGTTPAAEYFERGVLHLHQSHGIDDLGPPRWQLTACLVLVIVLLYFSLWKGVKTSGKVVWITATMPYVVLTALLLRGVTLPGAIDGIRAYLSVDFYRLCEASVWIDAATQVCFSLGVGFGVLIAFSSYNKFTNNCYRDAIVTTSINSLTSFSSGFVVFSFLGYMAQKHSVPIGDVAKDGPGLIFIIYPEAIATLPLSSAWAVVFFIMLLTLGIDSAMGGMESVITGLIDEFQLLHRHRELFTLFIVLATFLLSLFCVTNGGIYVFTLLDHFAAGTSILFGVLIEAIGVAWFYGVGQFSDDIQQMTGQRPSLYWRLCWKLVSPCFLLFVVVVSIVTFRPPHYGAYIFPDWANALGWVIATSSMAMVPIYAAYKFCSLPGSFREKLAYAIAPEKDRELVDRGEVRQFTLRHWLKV

[11] = target: T3, Alpha-1D adrenergic receptor (Homo sapiens) (UniProt P25100)
T3 sequence (whole entry): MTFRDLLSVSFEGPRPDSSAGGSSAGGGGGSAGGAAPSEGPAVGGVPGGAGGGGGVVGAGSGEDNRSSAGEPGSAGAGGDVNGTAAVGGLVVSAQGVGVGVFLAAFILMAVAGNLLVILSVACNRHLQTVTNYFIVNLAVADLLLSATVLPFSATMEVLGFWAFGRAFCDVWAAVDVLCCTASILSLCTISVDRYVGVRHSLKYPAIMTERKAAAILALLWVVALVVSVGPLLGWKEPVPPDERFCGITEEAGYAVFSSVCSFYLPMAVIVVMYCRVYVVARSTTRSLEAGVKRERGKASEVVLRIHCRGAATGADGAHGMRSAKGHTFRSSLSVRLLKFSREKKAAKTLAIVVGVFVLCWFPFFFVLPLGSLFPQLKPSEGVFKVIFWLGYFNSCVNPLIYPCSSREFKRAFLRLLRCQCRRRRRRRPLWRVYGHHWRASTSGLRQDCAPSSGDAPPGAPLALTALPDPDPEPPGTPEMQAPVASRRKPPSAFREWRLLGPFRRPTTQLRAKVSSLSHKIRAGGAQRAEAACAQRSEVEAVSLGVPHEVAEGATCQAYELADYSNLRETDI

[12] = target: Histamine H1 receptor (Homo sapiens) (UniProt P35367)
Sequence of Histamine H1 receptor (Homo sapiens) (P35367 whole entry): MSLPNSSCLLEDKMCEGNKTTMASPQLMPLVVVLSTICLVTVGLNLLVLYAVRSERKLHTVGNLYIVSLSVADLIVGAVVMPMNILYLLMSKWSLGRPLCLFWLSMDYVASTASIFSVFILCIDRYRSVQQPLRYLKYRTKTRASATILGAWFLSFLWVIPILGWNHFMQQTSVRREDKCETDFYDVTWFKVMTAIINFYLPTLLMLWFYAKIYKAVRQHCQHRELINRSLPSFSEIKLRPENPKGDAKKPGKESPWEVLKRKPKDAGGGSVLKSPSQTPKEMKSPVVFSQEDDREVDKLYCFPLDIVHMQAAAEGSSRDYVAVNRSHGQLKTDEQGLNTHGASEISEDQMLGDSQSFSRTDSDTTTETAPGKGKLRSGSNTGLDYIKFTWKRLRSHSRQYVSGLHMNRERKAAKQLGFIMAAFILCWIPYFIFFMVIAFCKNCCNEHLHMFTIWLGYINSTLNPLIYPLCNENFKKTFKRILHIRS

[13] = target: Histamine H4 receptor (Homo sapiens) (UniProt Q9H3N8)
[14] = target: D(2) dopamine receptor (Homo sapiens) (UniProt P14416)
Sequence of D(2) dopamine receptor (Homo sapiens) (P14416 whole entry): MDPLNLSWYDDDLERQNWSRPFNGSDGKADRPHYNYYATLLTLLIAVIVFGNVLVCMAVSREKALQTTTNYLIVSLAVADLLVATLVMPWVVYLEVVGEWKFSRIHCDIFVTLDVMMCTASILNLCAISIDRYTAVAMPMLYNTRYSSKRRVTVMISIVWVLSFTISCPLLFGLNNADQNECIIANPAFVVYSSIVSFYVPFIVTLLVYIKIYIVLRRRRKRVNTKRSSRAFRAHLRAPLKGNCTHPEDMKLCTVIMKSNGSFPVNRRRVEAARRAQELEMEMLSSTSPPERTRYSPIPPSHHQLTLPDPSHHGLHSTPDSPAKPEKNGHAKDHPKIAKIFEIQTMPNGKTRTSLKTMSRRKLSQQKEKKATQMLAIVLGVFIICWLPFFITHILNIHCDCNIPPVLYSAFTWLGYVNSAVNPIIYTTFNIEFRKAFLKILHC

[15] = target: Sigma intracellular receptor 2 (Homo sapiens) (UniProt Q5BJF2)
Sequence of Sigma intracellular receptor 2 (Homo sapiens) (Q5BJF2 whole entry): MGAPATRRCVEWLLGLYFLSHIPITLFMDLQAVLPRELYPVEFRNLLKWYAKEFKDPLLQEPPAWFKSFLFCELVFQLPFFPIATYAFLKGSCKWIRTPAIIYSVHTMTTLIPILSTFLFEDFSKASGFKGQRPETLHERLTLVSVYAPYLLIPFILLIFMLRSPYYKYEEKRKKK

[16] = target: Cholecystokinin receptor type A (Homo sapiens) (UniProt P32238); experiment: CCKA/H Eurofins SafetyScreen44 (BI)
[17] = target: D(1B) dopamine receptor (Homo sapiens) (UniProt P21918)
Sequence of D(1B) dopamine receptor (Homo sapiens) (P21918 whole entry): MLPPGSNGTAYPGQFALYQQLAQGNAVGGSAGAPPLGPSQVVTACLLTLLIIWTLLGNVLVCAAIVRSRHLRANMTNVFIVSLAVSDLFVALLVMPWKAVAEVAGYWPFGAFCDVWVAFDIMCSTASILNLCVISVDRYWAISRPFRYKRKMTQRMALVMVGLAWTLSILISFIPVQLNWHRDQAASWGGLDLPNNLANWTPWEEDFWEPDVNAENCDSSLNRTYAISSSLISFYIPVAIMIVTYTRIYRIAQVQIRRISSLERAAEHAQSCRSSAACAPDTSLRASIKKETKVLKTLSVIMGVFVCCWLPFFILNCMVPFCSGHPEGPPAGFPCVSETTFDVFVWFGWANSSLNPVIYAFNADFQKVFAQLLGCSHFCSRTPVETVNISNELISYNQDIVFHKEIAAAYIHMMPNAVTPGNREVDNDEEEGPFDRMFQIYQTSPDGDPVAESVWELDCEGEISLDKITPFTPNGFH

[18] = target: 5-hydroxytryptamine receptor 2A (Homo sapiens) (UniProt P28223)
Sequence of 5-hydroxytryptamine receptor 2A (Homo sapiens) (P28223 whole entry): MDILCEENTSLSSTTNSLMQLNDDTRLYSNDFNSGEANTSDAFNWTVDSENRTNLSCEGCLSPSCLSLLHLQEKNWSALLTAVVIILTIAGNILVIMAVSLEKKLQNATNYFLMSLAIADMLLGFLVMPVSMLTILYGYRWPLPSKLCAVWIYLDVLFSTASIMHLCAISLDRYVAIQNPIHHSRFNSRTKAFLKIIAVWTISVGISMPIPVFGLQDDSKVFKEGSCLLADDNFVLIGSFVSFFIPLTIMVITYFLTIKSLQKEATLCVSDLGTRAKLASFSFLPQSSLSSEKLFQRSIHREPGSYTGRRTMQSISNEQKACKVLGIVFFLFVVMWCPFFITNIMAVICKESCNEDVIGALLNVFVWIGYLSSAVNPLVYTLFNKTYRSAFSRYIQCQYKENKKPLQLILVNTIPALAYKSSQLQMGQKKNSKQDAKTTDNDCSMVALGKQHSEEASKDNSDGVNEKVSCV

[19] = target: GABA-A receptor; anion channel (Rattus norvegicus) (UniProt O09028+P15431+P18506+P18508+P19969+P20236+P23574+P23576+P28471+P28473+P30191+P62813+P63079+P63138+Q91ZM7+Q9ES14)

Sequence of 5-hydroxytryptamine receptor 6 (Homo sapiens) (P50406 whole entry): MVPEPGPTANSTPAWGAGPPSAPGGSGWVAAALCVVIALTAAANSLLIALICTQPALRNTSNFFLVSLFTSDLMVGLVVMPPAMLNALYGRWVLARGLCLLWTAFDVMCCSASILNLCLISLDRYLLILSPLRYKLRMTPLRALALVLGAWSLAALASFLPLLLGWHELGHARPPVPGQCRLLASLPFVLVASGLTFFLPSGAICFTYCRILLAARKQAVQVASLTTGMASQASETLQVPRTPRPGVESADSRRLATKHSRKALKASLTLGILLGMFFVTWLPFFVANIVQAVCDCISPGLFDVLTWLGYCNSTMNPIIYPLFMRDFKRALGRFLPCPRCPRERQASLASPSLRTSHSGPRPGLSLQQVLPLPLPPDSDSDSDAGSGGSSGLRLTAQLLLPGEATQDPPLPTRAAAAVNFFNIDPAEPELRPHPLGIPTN
Sequence of Histamine H3 receptor (Homo sapiens) (Q9Y5N1 whole entry): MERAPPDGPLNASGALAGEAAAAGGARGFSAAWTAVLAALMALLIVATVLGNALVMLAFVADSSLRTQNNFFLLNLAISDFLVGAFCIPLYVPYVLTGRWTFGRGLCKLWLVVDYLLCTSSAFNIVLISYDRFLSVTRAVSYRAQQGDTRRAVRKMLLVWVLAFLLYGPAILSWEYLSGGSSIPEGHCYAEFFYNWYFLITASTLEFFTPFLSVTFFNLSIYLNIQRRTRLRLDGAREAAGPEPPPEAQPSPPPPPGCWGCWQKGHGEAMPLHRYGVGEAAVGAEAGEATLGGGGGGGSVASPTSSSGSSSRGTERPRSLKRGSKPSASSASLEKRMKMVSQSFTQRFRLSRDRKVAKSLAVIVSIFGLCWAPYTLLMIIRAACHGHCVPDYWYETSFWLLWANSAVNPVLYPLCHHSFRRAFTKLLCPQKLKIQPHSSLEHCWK
Sequence of 5-hydroxytryptamine receptor 1B (Homo sapiens) (P28222 whole entry): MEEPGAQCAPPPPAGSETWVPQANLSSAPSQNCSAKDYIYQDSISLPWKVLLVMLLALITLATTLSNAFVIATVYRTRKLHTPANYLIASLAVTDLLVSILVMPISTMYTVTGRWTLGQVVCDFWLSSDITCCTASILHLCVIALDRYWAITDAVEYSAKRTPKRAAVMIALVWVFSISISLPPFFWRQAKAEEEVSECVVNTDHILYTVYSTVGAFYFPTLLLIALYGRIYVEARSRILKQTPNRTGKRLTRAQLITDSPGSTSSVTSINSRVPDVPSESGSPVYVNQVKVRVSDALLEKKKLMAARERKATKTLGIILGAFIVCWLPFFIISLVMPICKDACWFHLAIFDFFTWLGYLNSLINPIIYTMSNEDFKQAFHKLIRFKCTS

inhibition [1] [%]	inhibition [2] [%]	inhibition [3] [%]	inhibition [4] [%]	inhibition [5] [%]	inhibition [6] [%]	inhibition [7] [%]	inhibition [8] [%]	inhibition [9] [%]	inhibition [10] [%]	inhibition [11] [%]	inhibition [12] [%]	inhibition [13] [%]	inhibition [14] [%]	inhibition [15] [%]	inhibition [17] [%]	inhibition [18] [%]	inhibition [19] [%]	SMILES	residual activity [16] [%]
6.65	-2.53	18.6	9.84	8.37	22.6	-6.42	-7.32	8.54	26.8	5.84	10.3	-5.97	3.28	13.1	15.1	-0.3	66.7	Cc1cc(OCCC(C)(C)O)cc(C)c1-c1ccc(F)c2c1CC[C@H]2Oc1ccc2c(c1)OC[C@H]2CC(=O)O	103
-3.85	-8.04	5.08	3	20.6	31.1	20.4	-4.9	15	1.43	-5.9	-1.92	-2.95	8.15	-0.91	13.6	-2.26	30.7	COCCCS(=O)(=O)c1cc(C)c(-c2ccc(F)c3c2CC[C@H]3Oc2ccc3c(c2)OC[C@H]3CC(=O)O)c(C)c1	82
